Measured values as given in US5508428A, “Spiro compound” (Daiichi Phamaceutical Co., Ltd., priority 1988, dated 1996).
In brackets after ≈: the same amount, converted by molar mass.

What was measured:
Format in all cases: cell-based
S. aureus, 209P = assay: Antibacterial activity (MIC), S. aureus 209P; conditions: Staphylococcus aureus
Method: (§1) The antibacterial activity assays were performed by the method specified by Japan Society of Chemotherapy (Chemotherapy 29(1), 76 (1981). The table of antibacterial activity is followed by the reaction schemes for the synthesis of various spiro ring-containing cyclic amine derivatives, intermediate compounds for synthesis of quinolone rings and synthesis of various spiro compounds.

Ps. aeruginosa, 32121 = assay: Antibacterial activity (MIC), Ps. aeruginosa 32121; conditions: Pseudomonas aeruginosa, 32121, Ps. aeruginosa
Method: as §1

S. flexneri, 2A 5503 = assay: Antibacterial activity (MIC), S. flexneri 2A 5503; conditions: Shigella flexneri, 2A5503
Method: as §1

Str. pyogenes, G-36 = assay: Antibacterial activity (MIC), Str. pyogenes G-36; conditions: Streptococcus pyogenes, G36, Str. pyogenes
Method: as §1

Ps. aeruginosa, 32104 = assay: Antibacterial activity (MIC), Ps. aeruginosa 32104; conditions: for MIC: Pseudomonas aeruginosa, 32104, Ps. aeruginosa
Method: as §1

Ser. marcescens, 10100 = assay: Antibacterial activity (MIC), Ser. marcescens 10100; conditions: Serratia marcescens, 10100, Ser. marcescens
Method: as §1

E. coli, NIHJ = assay: Antibacterial activity (MIC), E. coli NIHJ; conditions: Escherichia coli
Method: as §1

[1] = system: Str. faecalis, ATCC-19433; assay: Antibacterial activity (MIC), Str. faecalis ATCC-19433; conditions: for MIC: Enterococcus faecalis, ATCC19433, Str. faecalis
Method: as §1

S. epidermidis, 56500 = assay: Antibacterial activity (MIC), S. epidermidis 56500; conditions: for MIC: Staphylococcus epidermidis, 56500, S. epidermidis
Method: as §1

[2] = system: Ps. maltophilia, IID-1275; assay: Antibacterial activity (MIC), Ps. maltophilia IID-1275; conditions: Stenotrophomonas maltophilia, IID1275, Ps. maltophilia
Method: as §1

Pr. mirabillis, IF0-3849 = assay: Antibacterial activity (MIC), Pr. mirabillis IF0-3849
Method: as §1

Pr. vulgaris, 08601 = assay: Antibacterial activity (MIC), Pr. vulgaris 08601; conditions: Proteus vulgaris
Method: as §1

SMILES	MIC (S. aureus, 209P)	MIC (Ps. aeruginosa, 32121)	MIC (S. flexneri, 2A 5503)	MIC (Str. pyogenes, G-36)	MIC (Ps. aeruginosa, 32104)	MIC (Ser. marcescens, 10100)	MIC (E. coli, NIHJ)	MIC [1]	MIC (S. epidermidis, 56500)	MIC [2]	MIC (Pr. mirabillis, IF0-3849)	MIC (Pr. vulgaris, 08601)	Antibacterial Activity (MIC) (Ps. aeruginosa, 32104; Ps. aeruginosa)	Antibacterial Activity (MIC) ([1]; Str. faecalis)	Antibacterial Activity (MIC) (S. epidermidis, 56500; S. epidermidis)
NC1CN(c2cc3c(cc2F)c(=O)c(C(=O)O)cn3C2CC2)CC12CC2 (racemic) [Compound 33, 7-(7-Amino-5-azaspiro[2.4]heptan-5-yl)-1-cyclopropyl-6-fluoro-1,4-dihydro-4-oxoquinoline-3-carboxylic Acid]	≤ 0.05 µg/mL	≤ 0.05 µg/mL	≤ 0.05 µg/mL	0.39 µg/mL (≈ 1.09 µM)	0.1 µg/mL (≈ 0.28 µM)	0.1 µg/mL (≈ 0.28 µM)	≤ 0.05 µg/mL	0.39 µg/mL (≈ 1.09 µM)	0.2 µg/mL (≈ 0.56 µM)	0.1 µg/mL (≈ 0.28 µM)	≤ 0.05 µg/mL	≤ 0.05 µg/mL			
O=C(O)c1cn(C2CC2)c2c(F)c(N3CC(CO)C4(CCC4)C3)c(F)cc2c1=O (stereo not drawn) [Compound 108, 1-Cyclopropyl-6,8,difluoro-7-(8-hydroxymethyl-6-azaspiro-[3.4]octan-6-yl)-4-oxo-1,4-dihydroquinoline-3-carboxylic acid]	≤ 0.05 µg/mL	0.39 µg/mL (≈ 0.964 µM)	0.2 µg/mL (≈ 0.495 µM)	0.39 µg/mL (≈ 0.964 µM)	1.56 µg/mL (≈ 3.86 µM)	1.56 µg/mL (≈ 3.86 µM)	0.2 µg/mL (≈ 0.495 µM)	0.2 µg/mL (≈ 0.495 µM)	≤ 0.05 µg/mL	1.56 µg/mL (≈ 3.86 µM)	0.78 µg/mL (≈ 1.93 µM)	0.1 µg/mL (≈ 0.247 µM)			
O=C(O)c1cn(C2CC2)c2c(Cl)c(N3CC(O)C4(CC4)C3)c(F)cc2c1=O (stereo not drawn) [Compound 39, 7-(7-Hydroxy-5-azaspiro[2.4]heptan-5-yl)-8-chloro-1-cyclopropyl-6-fluoro-1,4-dihydro-4-oxoquinoline-3-carboxylic acid]	≤ 0.05 µg/mL	0.39 µg/mL (≈ 0.993 µM)	≤ 0.05 µg/mL	0.39 µg/mL (≈ 0.993 µM)	1.56 µg/mL (≈ 3.97 µM)	0.39 µg/mL (≈ 0.993 µM)	≤ 0.05 µg/mL	0.39 µg/mL (≈ 0.993 µM)	≤ 0.05 µg/mL	≤ 0.05 µg/mL	0.2 µg/mL (≈ 0.509 µM)	≤ 0.05 µg/mL			
NC1CN(c2c(F)cc3c(=O)c(C(=O)O)cn(C4CC4)c3c2F)CC12CCC2 (stereo not drawn) [Compound 94]	≤ 0.05 µg/mL	0.39 µg/mL (≈ 1 µM)	≤ 0.05 µg/mL	0.39 µg/mL (≈ 1 µM)	0.1 µg/mL (≈ 0.257 µM)	0.1 µg/mL (≈ 0.257 µM)	≤ 0.05 µg/mL	0.2 µg/mL (≈ 0.514 µM)	≤ 0.05 µg/mL	0.2 µg/mL (≈ 0.514 µM)	0.1 µg/mL (≈ 0.257 µM)	≤ 0.05 µg/mL			
NC1CN(c2nc3c(cc2F)c(=O)c(C(=O)O)cn3C2CC2)CC12CC2 (stereo not drawn) [Compound 35, 7-(7-amino-5-azaspiro[2.4]heptan-5-yl)-1-cyclopropyl-6-fluoro-1,4-dihydro-4-oxo-1,8-naphthyridine-3-carboxylic acid]	0.1 µg/mL (≈ 0.279 µM)	≤ 0.05 µg/mL	≤ 0.05 µg/mL	0.78 µg/mL (≈ 2.18 µM)	0.1 µg/mL (≈ 0.279 µM)	≤ 0.05 µg/mL	≤ 0.05 µg/mL	0.39 µg/mL (≈ 1.09 µM)	0.2 µg/mL (≈ 0.558 µM)	≤ 0.05 µg/mL	0.1 µg/mL (≈ 0.279 µM)	≤ 0.05 µg/mL			
Cc1c(N2CC(N)C3(CC3)C2)c(F)cc2c(=O)c(C(=O)O)cn(C3CC3)c12 (single isomer, unassigned; (-)) [Compound 55b, (-)-7-(7-Amino-5-azaspiro[2.3]heptan-5-yl)-1-cyclopropyl-6-fluoro-8-methyl-4-oxo-1,4-dihydroquinoline-3-carboxylic acid]	≤ 0.05 µg/mL	≤ 0.05 µg/mL	≤ 0.05 µg/mL	0.1 µg/mL (≈ 0.269 µM)	≤ 0.05 µg/mL	0.1 µg/mL (≈ 0.269 µM)	≤ 0.05 µg/mL	0.1 µg/mL (≈ 0.269 µM)	≤ 0.05 µg/mL	≤ 0.05 µg/mL	≤ 0.05 µg/mL	≤ 0.05 µg/mL			
NC1CN(c2c(F)cc3c(=O)c(C(=O)O)cn(C4CC4)c3c2Cl)CC12CC2 (single isomer, unassigned) [Compound 32a, 7-(7-amino-5-azaspiro[2.4]heptan-5-yl)-8-chloro-1-cyclopropyl-6-fluoro-1,4-dihydro-4-oxoquinoline-3-carboxylic acid]	0.1 µg/mL (≈ 0.255 µM)	0.1 µg/mL (≈ 0.255 µM)	≤ 0.05 µg/mL	0.78 µg/mL (≈ 1.99 µM)		0.1 µg/mL (≈ 0.255 µM)	≤ 0.05 µg/mL			0.1 µg/mL (≈ 0.255 µM)	0.1 µg/mL (≈ 0.255 µM)	≤ 0.05 µg/mL	0.39 µg/mL	0.39 µg/mL	0.20 µg/mL
N[C@@H]1CN(c2cc3c(cc2F)c(=O)c(C(=O)O)cn3C2CC2)CC12CC2 [Compound 33b, (-)-7-[7-(S)-amino-5-azaspiro[2.3]heptan-5-yl)-1-cyclopropyl-6-fluoro-1,4-dihydro-4-oxoquinoline-3-carboxylic acid]	≤ 0.05 µg/mL	≤ 0.05 µg/mL	≤ 0.05 µg/mL	0.2 µg/mL (≈ 0.56 µM)	≤ 0.05 µg/mL	≤ 0.05 µg/mL	≤ 0.05 µg/mL	0.2 µg/mL (≈ 0.56 µM)	0.1 µg/mL (≈ 0.28 µM)	0.1 µg/mL (≈ 0.28 µM)	≤ 0.05 µg/mL	≤ 0.05 µg/mL			
